According to ChEMBL document CHEMBL4602679, “Polyesterified Sesquiterpenoids from the Seeds of Celastrus paniculatus as Lifespan-Extending Agents for the Nematode Caenorhabditis elegans” (2020):

Assays:
Caenorhabditis elegans [1] = experiment: Induction of lifespan expansion in late L4 larval stage of Caenorhabditis elegans Bristol N2 assessed as survival time at 50 uM (reference value: 15.19 =/- 0.53 day); type: functional
Caenorhabditis elegans [2] = experiment: Induction of lifespan expansion in late L4 larval stage of Caenorhabditis elegans Bristol N2 assessed as increase in survival time at 50 uM relative to control; type: functional

| SMILES | Survival (Caenorhabditis elegans [1]) | survival at 50 µM (Caenorhabditis elegans [2]) |
| --- | --- | --- |
| CC(=O)OC[C@@]12[C@@H](OC(C)=O)CC[C@](C)(O)[C@]13OC(C)(C)[C@H]([C@@H](OC(C)=O)[C@@H]2OC(=O)c1ccoc1)[C@H]3OC(C)=O | 15.29 days | – |
| CC(=O)OC[C@@]12[C@@H](OC(C)=O)CC[C@@H](C)[C@]13OC(C)(C)[C@H]([C@H](OC(C)=O)[C@H]2OC(=O)c1ccccc1)[C@H]3OC(C)=O | 17.77 days | 17% |
| CC(=O)OC[C@@]12[C@@H](OC(C)=O)CC[C@@H](C)[C@@]13C[C@@H]([C@H](OC(C)=O)[C@H]2OC(=O)c1ccoc1)C(C)(C)O3 | 17 days | 12% |
| CC(=O)OC[C@@]12[C@@H](OC(C)=O)CC[C@](C)(O)[C@]13OC(C)(C)[C@H]([C@H](OC(C)=O)[C@H]2OC(=O)c1ccoc1)[C@H]3OC(C)=O | 17.56 days | 16% |
| CC(=O)OC[C@@]12[C@@H](OC(C)=O)CC[C@](C)(O)[C@]13OC(C)(C)[C@H]([C@H](OC(C)=O)[C@@H]2OC(=O)c1ccoc1)[C@H]3OC(C)=O | 17.67 days | 16% |
| CC(=O)OC[C@@]12[C@@H](OC(C)=O)CC[C@@H](C)[C@@]13C[C@@H]([C@H](OC(C)=O)[C@@H]2OC(=O)c1ccoc1)C(C)(C)O3 | 16.38 days | – |
| CC(=O)OC[C@@]12[C@@H](OC(C)=O)CC[C@@H](C)[C@]13OC(C)(C)[C@H]([C@@H](OC(C)=O)[C@@H]2OC(=O)c1ccoc1)[C@H]3OC(C)=O | 16.83 days | 11% |
| CC(=O)OC[C@]12[C@@H](OC(=O)c3ccoc3)[C@@H](OC(C)=O)[C@@H]3C[C@]1(OC3(C)C)[C@H](C)C[C@@H](OC(C)=O)[C@@H]2OC(C)=O | 15.46 days | – |
| CC(=O)O[C@H]1CC[C@](C)(O)[C@]23OC(C)(C)[C@H]([C@H](OC(=O)c4ccoc4)[C@H](OC(=O)c4ccoc4)[C@]12CO)[C@H]3OC(C)=O | 18 days | 18% |
| CC(=O)OC[C@@]12[C@@H](OC(C)=O)CC[C@](C)(O)[C@]13OC(C)(C)[C@H]([C@H](OC(=O)c1ccoc1)[C@@H]2OC(=O)c1ccoc1)[C@H]3OC(C)=O | 17.39 days | 14% |
